Results as given in US9468212B2, “Antifungal compositions” (DSM IP ASSETS B.V., priority 2013, dated 2016).
Values joined by “and” are separate entries in the source; they are usually repeats but may differ in a detail not shown here. Equal values may be shown once.

Experiments:
[1] = system: Penicillium italicum; experiment: Treatment of oranges: wounded, inoculated with Penicillium italicum, wound treated with antifungal composition (Examples 7-9); type: in vivo; settings: for Observed antifungal activity O (%) / Number of moulded oranges/total number of 8 oranges: oranges, 20° C.
Experimental: The expected antifungal activity (E in %) of the combined antifungal composition comprising both active ingredients was calculated according to the Colby equation (Colby, 1967): E=X+Y−[(X·Y)/100] wherein X and Y are the observed antifungal activities (in %) of the individual active ingredients X and Y, respectively.
Eight fresh, organic oranges were used per treatment. Each orange was soaked in a 180 ppm hypochlorite solution for 10 minutes, then rinsed thoroughly with fresh tap water and dried. The peel of each disinfected orange was wounded once using a cork borer according to the method described by de Lapeyre de Bellaire and Dubois (1987). Subsequently, each wound was inoculated with 10 μl of a Penicillium italicum suspension containing 5×10^5 of spores/ml. After incubation for 3 hours at 20° C., each wound and the orange peel area of 1 cm around the wound was treated with in total […] of a freshly prepared aqueous antifungal composition comprising either 500 ppm natamycin (DSM Food Specialties, Delft, The Netherlands), 300 ppm fludioxonil or both. Each antifungal composition also comprised 3.2% (w/w) beeswax, 0.8% (w/w) glycerol, 0.7% (w/w) polyoxyethylene sorbitan monostearate (Tween 60), 0.1% (w/w) polyoxyethylene sorbitan monooleate (Tween 80), 0.05% (w/w) methylhydroxyethyl-cellulose (MHEC), 0.03% (w/w) anti-foaming agent, 0.02% (w/w) xanthan gum, 0.02% (w/w) citric acid, 0.01% (w/w) lactic acid and 0.01% potassium sorbate. A composition without natamycin or fludioxonil was used as control.
The treated oranges were incubated in a closed box in the dark at 20° C. and assessed on mould growth during a 27-day incubation period.
(§1) The experiment was conducted as described in Example 7, except for the fact that each wounded and inoculated orange was treated with 150 μl of a freshly prepared aqueous antifungal composition comprising either 250 ppm natamycin (DSM Food Specialties, Delft, The Netherlands), 100 ppm fludioxonil or both. During incubation, the treated oranges were assessed on mould growth according to the two methods described in Example 5.
as §1, with “500” for “250”, “400” for “100”, “fenpiclonil” for “fludioxonil”, “a 23-day incubation period,” for “incubation,”

[2] = system: Botrytis cinerea; experiment: Treatment of sweet peppers: wounded, inoculated with Botrytis cinerea, wound treated with antifungal composition (Example 10); type: in vivo; settings: 400 ppm natamycin, 600 ppm fenpiclonil or both, 20° C.
Experimental: Ten fresh, organic sweet peppers were used per treatment. The peel of each sweet pepper was wounded once using a cork borer according to the method described by de Lapeyre de Bellaire and Dubois (1987). Subsequently, each wound was inoculated with 10 μl of a Botrytis cinerea suspension containing 1×10^5 of spores/ml. After incubation for 3 hours at 20° C., each wound and the skin area of 0.5 cm around the wound was treated with in total 75 μl of a freshly prepared aqueous antifungal composition comprising either 400 ppm natamycin (DSM Food Specialties, Delft, The Netherlands), 600 ppm fenpiclonil or both. Each antifungal composition also comprised 3.2% (w/w) beeswax, 0.8% (w/w) glycerol, 0.7% (w/w) polyoxyethylene sorbitan monostearate (Tween 60), 0.2% (w/w) polyoxyethylene sorbitan monooleate (Tween 80), 0.05% (w/w) methylhydroxyethyl-cellulose (MHEC), 0.03% (w/w) anti-foaming agent, 0.02% (w/w) xanthan gum, 0.02% (w/w) citric acid, 0.01% (w/w) lactic acid and 0.01% potassium sorbate. A composition without natamycin or fenpiclonil was used as control.
The treated sweet peppers were incubated in a closed box in the dark at 20° C. and assessed on mould growth during incubation. The antifungal activity (in %) of the individual and combined active ingredients was determined by calculating the reduction in mould growth observed on the sweet peppers treated with the antifungal composition in comparison to the mould growth on the sweet peppers treated with the control composition according to the Colby method (Colby, 1967) as described in Example 5.

[3] = 250 ppm natamycin, 100 ppm fludioxonil or both, 26-27 days
[4] = 250 ppm natamycin, 100 ppm fludioxonil or both, 19 days
[5] = 250 ppm natamycin, 100 ppm fludioxonil or both, 20 days
[6] = 250 ppm natamycin, 100 ppm fludioxonil or both, 21 days
[7] = 250 ppm natamycin, 100 ppm fludioxonil or both, 22 days
[8] = 250 ppm natamycin, 100 ppm fludioxonil or both, 23 days
[9] = 250 ppm natamycin, 100 ppm fludioxonil or both, 25 days
[10] = 250 ppm natamycin, 100 ppm fludioxonil or both, Day 14-18
[11] = 250 ppm natamycin, 100 ppm fludioxonil or both, Day 19-22
[12] = 250 ppm natamycin, 100 ppm fludioxonil or both, Day 23-27
[13] = 500 ppm natamycin, 300 ppm fludioxonil or both, 22-27 days
[14] = 500 ppm natamycin, 300 ppm fludioxonil or both, 18 days
[15] = 500 ppm natamycin, 300 ppm fludioxonil or both, 19 days
[16] = 500 ppm natamycin, 300 ppm fludioxonil or both, 20 days
[17] = 500 ppm natamycin, 300 ppm fludioxonil or both, 21 days
[18] = 500 ppm natamycin, 300 ppm fludioxonil or both, Day 18-27

N#Cc1c[nH]cc1-c1cccc2c1OC(F)(F)O2 [Fludioxonil, fludioxonil]
moulded oranges of the 8 oranges ([1]; 250 ppm natamycin, 100 ppm fludioxonil or both, after 14 through 27 days of incubation): 8
Observed antifungal activity O (%) [1, 3]: 0%
Observed antifungal activity O (%) [1, 4]: 9%
Observed antifungal activity O (%) [1, 5]: 2%
Observed antifungal activity O (%) [1, 6]: 0%
Observed antifungal activity O (%) [1, 7]: 0%
Observed antifungal activity O (%) [1, 8]: 0%
Observed antifungal activity O (%) [1, 9]: 0%
Number of moulded oranges/total number of 8 oranges [1, 10]: 8/8
Number of moulded oranges/total number of 8 oranges [1, 11]: 8/8
Number of moulded oranges/total number of 8 oranges [1, 12]: 8/8
Observed antifungal activity O (%) [1, 13]: 17%
Observed antifungal activity O (%) [1, 14]: 17%
Observed antifungal activity O (%) [1, 15]: 17%
Observed antifungal activity O (%) [1, 16]: 17%
Observed antifungal activity O (%) [1, 17]: 17%
Number of moulded oranges/total number of 8 oranges [1, 18]: 7 and 7/8

C[C@@H]1C/C=C/C=C/C=C/C=C/[C@H](O[C@@H]2O[C@H](C)[C@@H](O)[C@H](N)[C@@H]2O)C[C@@H]2O[C@](O)(C[C@@H](O)C[C@H]3O[C@@H]3/C=C/C(=O)O1)C[C@H](O)[C@H]2C(=O)O [Natamycin, natamycin]
Observed antifungal activity O (%) [1, 3]: 17%
Observed antifungal activity O (%) [1, 4]: 36%
Observed antifungal activity O (%) [1, 5]: 34%
Observed antifungal activity O (%) [1, 6]: 32%
Observed antifungal activity O (%) [1, 7]: 29%
Observed antifungal activity O (%) [1, 8]: 25%
Observed antifungal activity O (%) [1, 9]: 19%
Number of moulded oranges/total number of 8 oranges [1, 10]: 6/8
Number of moulded oranges/total number of 8 oranges [1, 11]: 7/8
Number of moulded oranges/total number of 8 oranges [1, 12]: 7/8
Observed antifungal activity O (%) [1, 13]: 14%
Observed antifungal activity O (%) [1, 14]: 32%
Observed antifungal activity O (%) [1, 15]: 29%
Observed antifungal activity O (%) [1, 16]: 20%
Observed antifungal activity O (%) [1, 17]: 16%
Number of moulded oranges/total number of 8 oranges [1, 18]: 6 and 6/8
Observed antifungal activity O (%) ([1]; 500 ppm natamycin, 400 ppm fenpiclonil or both, 22-23 days): 14%
Observed antifungal activity O (%) ([1]; 500 ppm natamycin, 400 ppm fenpiclonil or both, 12 days): 55%
Observed antifungal activity O (%) ([1]; 500 ppm natamycin, 400 ppm fenpiclonil or both, 13 days): 52%
Observed antifungal activity O (%) ([1]; 500 ppm natamycin, 400 ppm fenpiclonil or both, 14 days): 48%
Observed antifungal activity O (%) ([1]; 500 ppm natamycin, 400 ppm fenpiclonil or both, 15 days): 45%
Observed antifungal activity O (%) ([1]; 500 ppm natamycin, 400 ppm fenpiclonil or both, 16 days): 43%
Observed antifungal activity O (%) ([1]; 500 ppm natamycin, 400 ppm fenpiclonil or both, 18 days): 32%
Observed antifungal activity O (%) ([1]; 500 ppm natamycin, 400 ppm fenpiclonil or both, 19 days): 29%
Observed antifungal activity O (%) ([1]; 500 ppm natamycin, 400 ppm fenpiclonil or both, 20 days): 20%
Observed antifungal activity O (%) ([1]; 500 ppm natamycin, 400 ppm fenpiclonil or both, 21 days): 16%
Number of moulded oranges/total number of 8 oranges ([1]; 500 ppm natamycin, 400 ppm fenpiclonil or both, Day 14-15): 5 and 5/8
Number of moulded oranges/total number of 8 oranges ([1]; 500 ppm natamycin, 400 ppm fenpiclonil or both, Day 16): 5/8
Number of moulded oranges/total number of 8 oranges ([1]; 500 ppm natamycin, 400 ppm fenpiclonil or both, Day 18): 6/8
Number of moulded oranges/total number of 8 oranges ([1]; 500 ppm natamycin, 400 ppm fenpiclonil or both, Day 19-23): 6/8
Observed antifungal activity O (%) ([2]; 47 days): 15%
Observed antifungal activity O (%) ([2]; 48 days): 6%
Observed antifungal activity O (%) ([2]; 49 days): 4%
Observed antifungal activity O (%) ([2]; 50 days): 3%
